We go through 34 sequences from the supplement of paper PMC11208160.
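Note: IS621 bridge recombinase in Escherichia coli cells against a fixed T5 target plasmid.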

This series in a line: recombinant UMI read abundance after kanamycin selection (control-corrected) (log10(CPM+1)); higher = more efficient recombination; extreme values may be limits of the assay; sequences stand for … in AGTGCAGAGAAAATCGGCCAGTTTTCTCTGCCTGCAGTCCGCATGCCGTGGGACCCCTTGGGTTCTAACCTGTTGCCTAGATTTATGCAGCGGACTGCCTTTCTCCCAAAGTGATAAACCGG…AGGTTGGTTTCACT; site = the 11-nt donor. In short, it runs like this:
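Values are reported as log10(CPM+1), obtained by converting sequencing counts to CPM, averaging replicates and scaling by control-derived factors. The counts came from recombinant UMIs amplified by PCR across the donor–target junction. These UMIs came from a pooled Escherichia coli screen of donor and donor-binding-loop pairs for the IS621 bridge recombinase, plated with IPTG (0.07 mM) plus kanamycin or left unselected, in two replicates each.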
With “TAGAATTCATGGACCGGTTTTCCCGGTAATCCGTATTTGCA (site TAGAATGCTTG)”, the “recombinant UMI read abundance (log10)” value was found to be 0.
For “TAGAATTCATGGACCGGTTTTCCCGGTAATCCGTATTTGCA (site TAGAATTCTTG)” the value was 1.53; for “TAGACGCCATGGACCGGTTTTCCCGGTAATCCGTATTTGTG (site TAGACGCCTCA)”, 0.00987; for “TAGCAGACATGGACCGGTTTTCCCGGTAATCCGTATTTGGT (site TAGCAGACTAC)”, 0.868.
As to “TAGCAGGCATGGACCGGTTTTCCCGGTAATCCGTATTTGCT (site TAGCAGGCTAG)”, the “recombinant UMI read abundance (log10)” value was determined as 1.19.
With “TAGCCTACATGGACCGGTTTTCCCGGTAATCCGTATTTGGT (site TAGCCTACTAC)”, the “recombinant UMI read abundance (log10)” value was 0.00532.
On to “TAGCCTACATGGACCGGTTTTCCCGGTAATCCGTATTTGGT (site TAGCCTCCTAC)”, for which the “recombinant UMI read abundance (log10)” value is 0.0181.
For the sequence “TAGCCTACATGGACCGGTTTTCCCGGTAATCCGTATTTGGT (site TAGCCTGCTAC)”, the “recombinant UMI read abundance (log10)” value was 0.0107.
Turning to “TAGCCTACATGGACCGGTTTTCCCGGTAATCCGTATTTGGT (site TAGCCTTCTAC)”, the “recombinant UMI read abundance (log10)” value stood at 0.0222.
As to “TAGCCTTCATGGACCGGTTTTCCCGGTAATCCGTATTTGGC (site TAGCCTTCTAC)”, the “recombinant UMI read abundance (log10)” value worked out at 0.00487.
With “TAGCCTTCATGGACCGGTTTTCCCGGTAATCCGTATTTGGC (site TAGCCTTCTCC)”, the “recombinant UMI read abundance (log10)” value was found to be 0.0163.
On to “TAGCCTTCATGGACCGGTTTTCCCGGTAATCCGTATTTGGC (site TAGCCTTCTGC)”, for which the “recombinant UMI read abundance (log10)” value amounted to 0.
For “TAGCCTTCATGGACCGGTTTTCCCGGTAATCCGTATTTGGC (site TAGCCTTCTTC)” the value was 0.0129; for “TAGCCTTCATGGACCGGTTTTCCCGGTAATCCGTATTTGTT (site TAGCCTTCTAA)”, 1.08; for “TAGCCTTCATGGACCGGTTTTCCCGGTAATCCGTATTTGTT (site TAGCCTTCTAC)”, 0.0119.
Take “TAGCCTTCATGGACCGGTTTTCCCGGTAATCCGTATTTGTT (site TAGCCTTCTAG)”: the “recombinant UMI read abundance (log10)” value is 0.0127.
For the sequence “TAGCCTTCATGGACCGGTTTTCCCGGTAATCCGTATTTGTT (site TAGCCTTCTAT)”, the “recombinant UMI read abundance (log10)” value worked out at 0.00427.
In the case of “TAGCGCGCATGGACCGGTTTTCCCGGTAATCCGTATTTGAC (site TAGCGCGCTGT)”, the “recombinant UMI read abundance (log10)” value worked out at 2.03.
As for “TAGCGGTCATGGACCGGTTTTCCCGGTAATCCGTATTTGTT (site TAGCGGTCTAA)”, the “recombinant UMI read abundance (log10)” value was 1.27.
For “TAGCTAGCATGGACCGGTTTTCCCGGTAATCCGTATTTGAA (site AAGCTAGCTTT)”, the “recombinant UMI read abundance (log10)” value is 0.0472.
Consider “TAGCTAGCATGGACCGGTTTTCCCGGTAATCCGTATTTGAA (site CAGCTAGCTTT)”, for which the “recombinant UMI read abundance (log10)” value worked out at 0.178.
As for “TAGCTAGCATGGACCGGTTTTCCCGGTAATCCGTATTTGAA (site GAGCTAGCTTT)”, the “recombinant UMI read abundance (log10)” value turned out to be 0.
In the case of “TAGCTAGCATGGACCGGTTTTCCCGGTAATCCGTATTTGAA (site TAACTAGCTTT)”, the “recombinant UMI read abundance (log10)” value turned out to be 0.822.
With “TAGCTAGCATGGACCGGTTTTCCCGGTAATCCGTATTTGAA (site TACCTAGCTTT)”, the “recombinant UMI read abundance (log10)” value was 0.015.
“TAGCTAGCATGGACCGGTTTTCCCGGTAATCCGTATTTGAA (site TAGATAGCTTT)”: the “recombinant UMI read abundance (log10)” value is 0.0135.
In the case of “TAGCTAGCATGGACCGGTTTTCCCGGTAATCCGTATTTGAA (site TAGCAAGCTTT)”, the “recombinant UMI read abundance (log10)” value came to 0.00493.
As for “TAGCTAGCATGGACCGGTTTTCCCGGTAATCCGTATTTGAA (site TAGCCAGCTTT)”, the “recombinant UMI read abundance (log10)” value is 0.0109.
As for “TAGCTAGCATGGACCGGTTTTCCCGGTAATCCGTATTTGAA (site TAGCGAGCTTT)”, the “recombinant UMI read abundance (log10)” value came to 0.0252.
For the sequence “TAGCTAGCATGGACCGGTTTTCCCGGTAATCCGTATTTGAA (site TAGCTAACTTT)”, the “recombinant UMI read abundance (log10)” value amounted to 0.0471.
For “TAGCTAGCATGGACCGGTTTTCCCGGTAATCCGTATTTGAA (site TAGCTACCTTT)” the value was 0.0202; for “TAGCTAGCATGGACCGGTTTTCCCGGTAATCCGTATTTGAA (site TAGCTAGCTAT)”, 0.502.
With “TAGCTAGCATGGACCGGTTTTCCCGGTAATCCGTATTTGAA (site TAGCTAGCTCT)”, the “recombinant UMI read abundance (log10)” value turned out to be 0.00536.
Take “TAGCTAGCATGGACCGGTTTTCCCGGTAATCCGTATTTGAA (site TAGCTAGCTGT)”: the “recombinant UMI read abundance (log10)” value came out at 1.28.
With “TAGCTAGCATGGACCGGTTTTCCCGGTAATCCGTATTTGAA (site TAGCTAGCTTA)”, the “recombinant UMI read abundance (log10)” value amounted to 0.00377.
